Laboratory results published in patent US20220340597A1, “HEXAHYDRO-1H-PYRAZINO[1,2-A]PYRAZINE COMPOUNDS FOR THE TREATMENT OF AUTOIMMUNE DISEASE” (Hoffmann-La Roche Inc., priority 2019, published 2022).
pIC50: −log10 of the molar value.

How the values were obtained:
[1] = biological target: T1, human TLR7 (Homo sapiens, UniProt Q9NYK1); test: HEK293-Blue-hTLR-7 cells assay; format: cell-based; conditions: HEK293-Blue-hTLR7 cells, R848 stimulation, 20 hrs, SEAP reporter; read-out: HEK/hTLR7 IC50
T1 construct: host or cells: HEK293 (HEK-Blue hTLR7)
T1 sequence (Q9NYK1 27-1049): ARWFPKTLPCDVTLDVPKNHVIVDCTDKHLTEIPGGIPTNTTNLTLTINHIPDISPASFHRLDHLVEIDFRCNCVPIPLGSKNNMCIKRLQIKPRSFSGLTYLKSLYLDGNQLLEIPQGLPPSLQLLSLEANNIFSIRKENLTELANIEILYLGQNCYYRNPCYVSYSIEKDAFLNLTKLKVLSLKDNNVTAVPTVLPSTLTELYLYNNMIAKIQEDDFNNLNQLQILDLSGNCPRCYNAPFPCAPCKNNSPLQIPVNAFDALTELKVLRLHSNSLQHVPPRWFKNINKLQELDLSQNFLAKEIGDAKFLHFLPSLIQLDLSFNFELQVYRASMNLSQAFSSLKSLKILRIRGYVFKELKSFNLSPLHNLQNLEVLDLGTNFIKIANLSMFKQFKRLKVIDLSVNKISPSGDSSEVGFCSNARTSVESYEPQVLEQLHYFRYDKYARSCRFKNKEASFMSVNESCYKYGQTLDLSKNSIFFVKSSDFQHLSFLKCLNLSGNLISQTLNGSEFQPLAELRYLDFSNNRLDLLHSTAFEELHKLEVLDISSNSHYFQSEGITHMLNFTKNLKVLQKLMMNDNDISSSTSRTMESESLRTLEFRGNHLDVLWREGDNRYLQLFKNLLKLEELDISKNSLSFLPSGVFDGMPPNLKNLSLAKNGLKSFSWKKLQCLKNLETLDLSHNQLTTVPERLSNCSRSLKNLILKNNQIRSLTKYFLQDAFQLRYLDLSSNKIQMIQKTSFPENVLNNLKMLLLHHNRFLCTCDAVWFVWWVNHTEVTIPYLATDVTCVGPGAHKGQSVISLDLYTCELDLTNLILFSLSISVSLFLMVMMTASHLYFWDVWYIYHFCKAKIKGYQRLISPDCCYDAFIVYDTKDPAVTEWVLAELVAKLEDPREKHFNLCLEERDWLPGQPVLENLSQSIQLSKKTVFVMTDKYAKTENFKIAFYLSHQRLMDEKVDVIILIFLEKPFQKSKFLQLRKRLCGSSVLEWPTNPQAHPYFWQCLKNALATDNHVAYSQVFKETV
Method: The following tests were carried out in order to determine the activity of the compounds of formula (I) and (Ia) in HEK293-Blue-hTLR-7/8/9 cells assay.
HEK293-Blue-hTLR-7 cells assay:
A stable HEK293-Blue-hTLR-7 cell line was purchased from InvivoGen (Cat. #: hkb-htlr7, San Diego, Calif., USA). These cells were originally designed for studying the stimulation of human TLR7 by monitoring the activation of NF-κB. A SEAP (secreted embryonic alkaline phosphatase) reporter gene was placed under the control of the […] minimal promoter fused to five NF-κB and AP-1-binding sites. The SEAP was induced by activating NF-κB and AP-1 via stimulating HEK-Blue hTLR7 cells with TLR7 ligands. Therefore, the reporter expression was declined by TLR7 antagonist under the stimulation of a ligand, such as R848 (Resiquimod), for incubation of 20 hrs. The cell culture supernatant SEAP reporter activity was determined using QUANTI-Blue™ kit (Cat. #: rep-qb1, Invivogen, San Diego, Calif., USA) at a wavelength of 640 nm, a detection medium that turns purple or blue in the presence of alkaline phosphatase.
Then 20 μL of the supernatant from each well was incubated with […] Quanti-blue substrate solution at 37° C. for 2 hrs and the absorbance was read at 620-655 nm using a spectrophotometer. The signaling pathway that TLR7 activation leads to downstream NF-κB activation has been widely accepted, and therefore similar reporter assay was modified for evaluating TLR7 antagonist.

[2] = biological target: T2, human TLR8 (Homo sapiens, UniProt Q9NR97); test: HEK293-Blue-hTLR-8 cells assay
T2 sequence (Q9NR97 27-1041): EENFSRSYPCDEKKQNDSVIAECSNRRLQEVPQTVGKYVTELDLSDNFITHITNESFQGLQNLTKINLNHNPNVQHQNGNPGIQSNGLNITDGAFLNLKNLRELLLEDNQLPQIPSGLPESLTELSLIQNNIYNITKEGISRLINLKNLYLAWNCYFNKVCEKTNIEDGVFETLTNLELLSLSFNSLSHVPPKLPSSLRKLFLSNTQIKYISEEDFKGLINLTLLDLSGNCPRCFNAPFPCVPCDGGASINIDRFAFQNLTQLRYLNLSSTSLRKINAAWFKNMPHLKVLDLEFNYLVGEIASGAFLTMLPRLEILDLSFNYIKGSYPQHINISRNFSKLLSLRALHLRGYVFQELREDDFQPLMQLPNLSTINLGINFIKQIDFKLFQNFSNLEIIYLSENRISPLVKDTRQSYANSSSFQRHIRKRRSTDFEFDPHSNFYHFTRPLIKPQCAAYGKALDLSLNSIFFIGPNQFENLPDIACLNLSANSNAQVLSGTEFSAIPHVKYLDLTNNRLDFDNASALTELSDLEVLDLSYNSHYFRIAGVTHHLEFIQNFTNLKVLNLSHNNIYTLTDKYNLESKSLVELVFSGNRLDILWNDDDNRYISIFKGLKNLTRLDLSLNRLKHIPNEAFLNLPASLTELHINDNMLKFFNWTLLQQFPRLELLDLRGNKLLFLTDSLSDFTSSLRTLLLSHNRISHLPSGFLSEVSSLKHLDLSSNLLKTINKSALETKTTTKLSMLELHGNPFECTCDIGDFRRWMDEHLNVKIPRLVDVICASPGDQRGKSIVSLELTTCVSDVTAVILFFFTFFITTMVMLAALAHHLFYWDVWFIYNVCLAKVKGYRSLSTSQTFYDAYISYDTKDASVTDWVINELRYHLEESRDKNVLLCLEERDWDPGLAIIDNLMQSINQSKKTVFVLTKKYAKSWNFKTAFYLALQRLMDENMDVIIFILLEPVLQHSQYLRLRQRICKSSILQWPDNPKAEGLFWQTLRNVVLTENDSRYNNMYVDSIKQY
Description: HEK293-Blue-hTLR-8 Cells Assay:
A stable HEK293-Blue-hTLR-8 cell line was purchased from InvivoGen (Cat. #: hkb-htlr8, San Diego, Calif., USA). These cells were originally designed for studying the stimulation of human TLR8 by monitoring the activation of NF-κB. A SEAP (secreted embryonic alkaline phosphatase) reporter gene was placed under the control of the IFN-β minimal promoter fused to five NF-κB and AP-1-binding sites. The SEAP was induced by activating NF-κB and AP-1 via stimulating HEK-Blue hTLR8 cells with TLR8 ligands. Therefore, the reporter expression was declined by TLR8 antagonist under the stimulation of a ligand, such as R848, for incubation of 20 hrs. The cell culture supernatant SEAP reporter activity was determined using QUANTI-Blue™ kit (Cat. #: rep-qb1, Invivogen, San Diego, Calif., USA) at a wavelength of 640 nm, a detection medium that turns purple or blue in the presence of alkaline phosphatase.

SMILES	pIC50 [1]	pIC50 [2]
C[C@@H]1CN(c2ccc(C#N)c3ncccc23)C[C@@H]2CN(c3ccnc(N4C[C@@H](F)[C@@H](N)C4)c3)CCN21 [Example 40, 5-[(4R,9aS)-8-[2-[(3S,4R)-3-amino-4-fluoro-pyrrolidin-1-yl]-4-pyridyl]-4-methyl-3,4,6,7,9,9a-hexahydro-1H-pyrazino[1,2-a]pyrazin-2-yl]quinoline-8-carbonitrile]	8.15	8.15
C[C@@H]1CN(c2ccc(C#N)c3ncccc23)C[C@@H]2CN(c3ccnc(N4CCOC[C@@H](N)C4)c3)CCN21 [Example 53, 5-[(4R,9aS)-8-[2-[(6S)-6-amino-1,4-oxazepan-4-yl]-4-pyridyl]-4-methyl-3,4,6,7,9,9a-hexahydro-1H-pyrazino[1,2-a]pyrazin-2-yl]quinoline-8-carbonitrile]	7.89	7.70
[2H]c1ccc2c(N3C[C@@H]4CN(c5ccc(N6CC7CCC(C6)N7)nc5)CCN4[C@@H](C)C3)ccc(C#N)c2n1 [Example 112, 5-[(4S,9aR)-8-[6-(3,8-diazabicyclo[3.2.1]octan-3-yl)-3-pyridyl]-4-methyl-3,4,6,7,9,9a-hexahydro-1H-pyrazino[1,2-a]pyrazin-2-yl]-2-deuterio-quinoline-8-carbonitrile]	8.40	8.00
C[C@@H]1CN(c2ccc(C#N)c3ncccc23)C[C@@H]2CN(CCc3ccc(N4CC5(CN(C)C5)C4)nc3)CCN21 [Example 22, 5-[(4R,9aS)-4-methyl-8-[2-[6-(6-methyl-2,6-diazaspiro[3.3]heptan-2-yl)-3-pyridyl]ethyl]-3,4,6,7,9,9a-hexahydro-1H-pyrazino[1,2-a]pyrazin-2-yl]quinoline-8-carbonitrile]	7.59	7.24
Cc1cc(N2CCN3[C@@H](C2)CN(c2ccc(C#N)c4ncccc24)C[C@H]3C)nc(N2CCNCC2)n1 [Example 31, 5-[(4R,9aR)-4-methyl-8-(6-methyl-2-piperazin-1-yl-pyrimidin-4-yl)-3,4,6,7,9,9a-hexahydro-1H-pyrazino[1,2-a]pyrazin-2-yl]quinoline-8-carbonitrile]	7.66	7.62
C[C@@H]1CN(c2ccc(C#N)c3ncccc23)C[C@@H]2CN(Cc3cncc(N4CCNCC4)c3)CCN21 [Example 57, 5-[(4R,9aS)-4-methyl-8-[(5-piperazin-1-yl-3-pyridyl)methyl]-3,4,6,7,9,9a-hexahydro-1H-pyrazino[1,2-a]pyrazin-2-yl]quinoline-8-carbonitrile]	7.64	7.66
Cc1cnc(N2CCN3[C@@H](C2)CN(c2ccc(C#N)c4ncccc24)C[C@H]3C)nc1N1CCNCC1 [Example 43, 5-[(4R,9aR)-4-methyl-8-(5-methyl-4-piperazin-1-yl-pyrimidin-2-yl)-3,4,6,7,9,9a-hexahydro-1H-pyrazino[1,2-a]pyrazin-2-yl]quinoline-8-carbonitrile]	8.05	7.89
CO[C@@H]1CN(c2ccnc(N3CCN4[C@@H](C3)CN(c3ccc(C#N)c5ncccc35)C[C@H]4C)n2)C[C@H]1N [Example 37, 5-[(4R,9aR)-8-[4-[(3R,4R)-3-amino-4-methoxy-pyrrolidin-1-yl]pyrimidin-2-yl]-4-methyl-3,4,6,7,9,9a-hexahydro-1H-pyrazino[1,2-a]pyrazin-2-yl]quinoline-8-carbonitrile]	7.68	7.59

Next, values leading:

pIC50 [1]	pIC50 [2]	SMILES
7.59	8.15	C[C@@H]1CN(c2ccc(C#N)c3ncccc23)C[C@@H]2CN(c3ccnc(N4CC[C@@](C)(N)C4)c3)CCN21 [Example 105, 5-[(4R,9aS)-8-[2-[(3R)-3-amino-3-methyl-pyrrolidin-1-yl]-4-pyridyl]-4-methyl-3,4,6,7,9,9a-hexahydro-1H-pyrazino[1,2-a]pyrazin-2-yl]quinoline-8-carbonitrile]
8.22	8.30	[2H]c1ccc2c(N3C[C@@H]4CN(c5ncc(N6C[C@@H]7C[C@H]6CN7)cc5C)CCN4[C@@H](C)C3)ccc(C#N)c2n1 [Example 111, 5-[(4S,9aR)-8-[5-[(1S,4S)-2,5-diazabicyclo[2.2.1]heptan-2-yl]-3-methyl-2-pyridyl]-4-methyl-3,4,6,7,9,9a-hexahydro-1H-pyrazino[1,2-a]pyrazin-2-yl]-2-deuterio-quinoline-8-carbonitrile]
8.52	8.40	[2H]c1ccc2c(N3C[C@@H]4CN(c5ccc([C@H]6CNCCO6)cc5)CCN4[C@@H](C)C3)ccc(C#N)c2n1 [Example 107, 5-[(4S,9aS)-4-methyl-8-[4-[(2S)-morpholin-2-yl]phenyl]-3,4,6,7,9,9a-hexahydro-1H-pyrazino[1,2-a]pyrazin-2-yl]-2-deuterio-quinoline-8-carbonitrile]
9.00	8.15	C[C@H]1CN(c2ccc(C#N)c3ncccc23)C[C@@H]2CN(c3ccc([C@@H]4CNCCO4)cc3)CCN21 [Example 125, 5-[(4S,9aS)-4-methyl-8-[4-[(2R)-morpholin-2-yl]phenyl]-3,4,6,7,9,9a-hexahydro-1H-pyrazino[1,2-a]pyrazin-2-yl]quinoline-8-carbonitrile]
7.85	7.29	C[C@@H]1CN(c2ccc(C#N)c3ncccc23)C[C@@H]2CN(CCc3ccc(N4C[C@H]5NCCO[C@@H]5C4)nc3)CCN21 [Example 124, 5-[(4R,9aS)-8-[2-[6-[(4aR,7aR)-3,4,4a,5,7,7a-hexahydro-2H-pyrrolo[3,4-b][1,4]oxazin-6-yl]-3-pyridyl]ethyl]-4-methyl-3,4,6,7,9,9a-hexahydro-1H-pyrazino[1,2-a]pyrazin-2-yl]quinoline-8-carbonitrile]
7.46	7.77	[2H]c1ccc2c(N3C[C@@H]4CN(Cc5ccc(N6CCNCC6)nc5)CCN4[C@H](C)C3)ccc(C#N)c2n1 [Example 78, 5-[(4R,9aS)-4-methyl-8-[(6-piperazin-1-yl-3-pyridyl)methyl]-3,4,6,7,9,9a-hexahydro-1H-pyrazino[1,2-a]pyrazin-2-yl]-2-deuterio-quinoline-8-carbonitrile]
